Structures are written as SMILES.

T1 sequence (P13569 with tags, fused parts or gaps DEL508-508): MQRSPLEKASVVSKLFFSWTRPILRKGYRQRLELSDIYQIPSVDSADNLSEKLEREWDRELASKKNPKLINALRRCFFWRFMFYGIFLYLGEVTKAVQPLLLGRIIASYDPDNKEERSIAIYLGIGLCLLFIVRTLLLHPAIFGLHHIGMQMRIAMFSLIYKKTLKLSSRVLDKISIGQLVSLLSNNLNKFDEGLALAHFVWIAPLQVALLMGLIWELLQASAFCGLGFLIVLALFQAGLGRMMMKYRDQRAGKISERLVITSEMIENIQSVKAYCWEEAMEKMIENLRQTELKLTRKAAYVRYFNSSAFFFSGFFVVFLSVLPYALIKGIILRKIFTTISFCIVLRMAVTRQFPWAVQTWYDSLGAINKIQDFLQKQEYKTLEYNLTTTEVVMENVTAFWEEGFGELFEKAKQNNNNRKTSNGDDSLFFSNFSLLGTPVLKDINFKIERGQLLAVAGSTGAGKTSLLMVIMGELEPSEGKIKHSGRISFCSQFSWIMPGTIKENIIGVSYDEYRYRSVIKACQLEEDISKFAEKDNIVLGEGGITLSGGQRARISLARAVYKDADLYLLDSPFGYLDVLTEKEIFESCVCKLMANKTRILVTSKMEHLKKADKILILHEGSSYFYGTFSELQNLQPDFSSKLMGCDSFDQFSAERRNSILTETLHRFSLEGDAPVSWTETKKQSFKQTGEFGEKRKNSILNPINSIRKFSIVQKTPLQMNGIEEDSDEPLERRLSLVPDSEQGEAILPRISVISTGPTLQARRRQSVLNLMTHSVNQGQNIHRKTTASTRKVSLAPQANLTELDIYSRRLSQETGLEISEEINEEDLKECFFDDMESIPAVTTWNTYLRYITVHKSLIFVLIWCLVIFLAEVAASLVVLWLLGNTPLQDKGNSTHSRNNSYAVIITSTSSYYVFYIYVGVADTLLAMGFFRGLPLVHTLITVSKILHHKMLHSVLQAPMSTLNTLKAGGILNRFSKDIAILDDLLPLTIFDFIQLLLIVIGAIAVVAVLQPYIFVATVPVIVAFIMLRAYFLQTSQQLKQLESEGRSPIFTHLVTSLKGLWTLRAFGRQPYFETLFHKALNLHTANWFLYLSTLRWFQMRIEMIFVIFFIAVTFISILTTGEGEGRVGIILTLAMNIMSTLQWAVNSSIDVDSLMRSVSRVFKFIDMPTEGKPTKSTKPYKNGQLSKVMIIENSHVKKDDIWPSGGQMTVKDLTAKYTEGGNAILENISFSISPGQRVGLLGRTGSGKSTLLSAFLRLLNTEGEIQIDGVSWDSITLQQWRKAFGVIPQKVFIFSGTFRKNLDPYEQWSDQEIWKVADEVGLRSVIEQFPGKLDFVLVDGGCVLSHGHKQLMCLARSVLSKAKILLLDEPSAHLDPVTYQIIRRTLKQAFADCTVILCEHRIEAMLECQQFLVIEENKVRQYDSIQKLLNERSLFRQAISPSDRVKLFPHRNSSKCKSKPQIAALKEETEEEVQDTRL

This experiment concerns the target T1, F508del (Homo sapiens, UniProt P13569, DEL508-508).
T1 construct: expressed in transfected cells
In words: Protocol 1: membrane potential optical assay (FLIPR III, voltage sensing dye), identification of potentiator compounds. It is filed as cell-based. As to conditions: Table 3, compounds of Table 1. The procedure, abridged:
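Membrane potential in forskolin-activated, temperature-rescued F508del NIH 3T3 cells is followed with a voltage-sensing dye on FLIPR III. A chloride ion gradient created at the single addition step provides the driving force, after prior compound treatment.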
Turning to `Cc1cc(C)c(Oc2nc(-c3cccc(CN)c3)ccc2C(=O)NS(=O)(=O)c2cccc(N)n2)c(C)c1` [Compound 801, 6-[3-(aminomethyl)phenyl]-N-[(6-amino-2-pyridyl)sulfonyl]-2-(2,4,6-trimethylphenoxy)pyridine-3-carboxamide], the EC30 entry is given as “+ (“+” means greater than 10 uM)”.
The result for `CCOc1cc(C)n(-c2ccc(C(=O)NS(=O)(=O)c3cccc(N)n3)c(N3C[C@@H](C)CC3(C)C)n2)n1` [Compound 1473, N-[(6-amino-2-pyridyl)sulfonyl]-6-(3-ethoxy-5-methyl-pyrazol-1-yl)-2-[(4S)-2,2,4-trimethylpyrrolidin-1-yl]pyridine-3-carboxamide] reads “+++ (“+++” means <3 uM)”.
The result for `CC(C)COc1cc(F)cc(-c2ccc(C(=O)NS(=O)(=O)c3cccc(N)n3)c(OC3CCC3)n2)c1` [Compound 1580, N-[(6-amino-2-pyridyl)sulfonyl]-2-(cyclobutoxy)-6-(3-fluoro-5-isobutoxy-phenyl)pyridine-3-carboxamide] reads “+++ (“+++” means <3 uM)”; that for `CCOc1cccc2c1CN(Cc1c(C)cc(C)cc1C)C2(C)C(=O)NS(=O)(=O)c1ccc(N)nc1` (stereo not drawn) [Compound 1413, N-[(6-amino-3-pyridyl)sulfonyl]-4-ethoxy-1-methyl-2-[(2,4,6-trimethylphenyl)methyl]isoindoline-1-carboxamide], “+++ (“+++” means <3 uM)”.
In the case of `Cc1ccc(-c2ccc(C(=O)NS(=O)(=O)c3cccnc3N)c(N3C[C@@H](C)CC3(C)C)n2)c(O)c1` [Compound 1731, N-[(2-amino-3-pyridyl)sulfonyl]-6-(2-hydroxy-4-methyl-phenyl)-2-[(4S)-2,2,4-trimethylpyrrolidin-1-yl]pyridine-3-carboxamide], the EC30 result is given as “+++ (“+++” means <3 uM)”.
Regarding `CCOc1cccc2c1CN(Cc1c(C)cccc1C)C2(C)C(=O)NS(=O)(=O)c1cccc(F)n1` (stereo not drawn) [Compound 1676, 2-[(2,6-dimethylphenyl)methyl]-4-ethoxy-N-[(6-fluoro-2-pyridyl)sulfonyl]-1-methyl-isoindoline-1-carboxamide], the EC30 result is given as “+++ (“+++” means <3 uM)”.
The result for `C[C@@H]1CN(c2nc(C3=CCCN(C(=O)c4cccc(Cl)c4)C3)ccc2C(=O)NS(=O)(=O)c2cccc(N)n2)C(C)(C)C1` [Compound 1984, N-[(6-amino-2-pyridyl)sulfonyl]-6-[1-(3-chlorobenzoyl)-3,6-dihydro-2H-pyridin-5-yl]-2-[(4S)-2,2,4-trimethylpyrrolidin-1-yl]pyridine-3-carboxamide] reads “++ (“++” means between 3 uM and 10 uM)”; that for `CC(C)COc1cncc(-c2ccc(C(=O)NS(=O)(=O)c3cccc(N)n3)c(N3[C@H](C)CC[C@@H]3C)n2)c1` [Compound 1224, N-[(6-amino-2-pyridyl)sulfonyl]-2-[(2S,5R)-2,5-dimethylpyrrolidin-1-yl]-6-(5-isobutoxy-3-pyridyl)pyridine-3-carboxamide], “++ (“++” means between 3 uM and 10 uM)”.
Under `CCCOc1cc(-c2ccc(C(=O)NS(=O)(=O)c3ccn[nH]3)c(N3[C@H](C)CC[C@@H]3C)n2)ccc1Cl` [Compound 832, 6-(4-chloro-3-propoxy-phenyl)-2-[(2R,5S)-2,5-dimethylpyrrolidin-1-yl]-N-(1H-pyrazol-5-ylsulfonyl)pyridine-3-carboxamide] stands “+++ (“+++” means <3 uM)”; under `CC(C)COc1cc(F)cc(-c2ccc(C(=O)NS(=O)(=O)c3cccc(N)n3)c(N3CCC3(C)C)n2)c1` [Compound 1928, N-[(6-amino-2-pyridyl)sulfonyl]-2-(2,2-dimethylazetidin-1-yl)-6-(3-fluoro-5-isobutoxy-phenyl)pyridine-3-carboxamide], “++ (“++” means between 3 uM and 10 uM)”; under `Cc1cc(C)c(Oc2nc(-c3cccc(F)c3O)ccc2C(=O)NS(=O)(=O)c2cccc(N)n2)c(C)c1` [Compound 866, N-[(6-amino-2-pyridyl)sulfonyl]-6-(3-fluoro-2-hydroxy-phenyl)-2-(2,4,6-trimethylphenoxy)pyridine-3-carboxamide], “+++ (“+++” means <3 uM)”.
The result for `Cc1cn(-c2ccc(C(=O)NS(=O)(=O)c3cccc(N)n3)c(N3C[C@@H](C)CC3(C)C)n2)nc1OCC(C)C` [Compound 1532, N-[(6-amino-2-pyridyl)sulfonyl]-6-(3-isobutoxy-4-methyl-pyrazol-1-yl)-2-[(4S)-2,2,4-trimethylpyrrolidin-1-yl]pyridine-3-carboxamide] reads “+++ (“+++” means <3 uM)”; that for `Cc1ccnc(C)c1Oc1nc(-c2cc(F)cc(OCC(C)C)c2)ccc1C(=O)NS(=O)(=O)c1cccc(N)n1` [Compound 1574, N-[(6-amino-2-pyridyl)sulfonyl]-2-[(2,4-dimethyl-3-pyridyl)oxy]-6-(3-fluoro-5-isobutoxy-phenyl)pyridine-3-carboxamide], “++ (“++” means between 3 uM and 10 uM)”; that for `CC(C)COc1cc(F)cc(-c2ccc(C(=O)NS(=O)(=O)c3cccc(N)n3)c(N3CCC(c4ccccc4)C3C)n2)c1` (stereo not drawn) [Compound 1319, N-[(6-amino-2-pyridyl)sulfonyl]-6-(3-fluoro-5-isobutoxy-phenyl)-2-(2-methyl-3-phenyl-pyrrolidin-1-yl)pyridine-3-carboxamide], “+++ (“+++” means <3 uM)”.
For `CC(C)COc1cccc(-c2ccc(C(=O)NS(=O)(=O)c3cccc(N)n3)c(N3CCCC3(C)C)n2)n1` [Compound 1011, N-[(6-amino-2-pyridyl)sulfonyl]-2-(2,2-dimethylpyrrolidin-1-yl)-6-(6-isobutoxy-2-pyridyl)pyridine-3-carboxamide], the EC30 entry is listed as “+++ (“+++” means <3 uM)”.
Under `CCOc1cc(F)ccc1-c1ccc(C(=O)NS(=O)(=O)c2ccc[nH]c2=O)c(N2C[C@@H](C)CC2(C)C)n1` [Compound 1867, 6-(2-ethoxy-4-fluoro-phenyl)-N-[(2-oxo-1H-pyridin-3-yl)sulfonyl]-2-[(4S)-2,2,4-trimethylpyrrolidin-1-yl]pyridine-3-carboxamide] stands “+++ (“+++” means <3 uM)”; under `CC(C)CNc1ccc(-c2ccc(C(=O)NS(=O)(=O)c3cccc(N)n3)c(N3[C@H](C)CC[C@@H]3C)n2)cn1` [Compound 1398, N-[(6-amino-2-pyridyl)sulfonyl]-2-[(2S,5R)-2,5-dimethylpyrrolidin-1-yl]-6-[6-(isobutylamino)-3-pyridyl]pyridine-3-carboxamide], “++ (“++” means between 3 uM and 10 uM)”.
Take `CC1CN(c2ncc(-c3cccc(OC(C)C)c3)cc2C(=O)NS(=O)(=O)c2cccc(N)n2)C(C)(C)C1` (stereo not drawn) [Compound 1804, N-[(6-amino-2-pyridyl)sulfonyl]-5-(3-isopropoxyphenyl)-2-(2,2,4-trimethylpyrrolidin-1-yl)pyridine-3-carboxamide]: the EC30 result is “+++ (“+++” means <3 uM)”.
Take `Cc1cc(C#N)cc(C)c1Oc1nc(C(C)(C)C)ccc1C(=O)NS(=O)(=O)c1cccc(N)n1` [Compound 1089, N-[(6-amino-2-pyridyl)sulfonyl]-6-tert-butyl-2-(4-cyano-2,6-dimethyl-phenoxy)pyridine-3-carboxamide]: the EC30 entry is “+++ (“+++” means <3 uM)”.
Regarding `CC1CC(C)CN(c2cccc(S(=O)(=O)NC(=O)c3cccnc3N3CC(C)CC3(C)C)n2)C1` (stereo not drawn) [Compound 1749, N—[[6-(3,5-dimethyl-1-piperidyl)-2-pyridyl]sulfonyl]-2-(2,2,4-trimethylpyrrolidin-1-yl)pyridine-3-carboxamide], the EC30 entry is on record as “+++ (“+++” means <3 uM)”.
Under `Cc1cc(N)nc(S(=O)(=O)NC(=O)c2ccc(-c3cc(F)cc(OCC(C)C)c3)nc2N2C[C@@H](C)CC2(C)C)c1` [Compound 1472, N-[(6-amino-4-methyl-2-pyridyl)sulfonyl]-6-(3-fluoro-5-isobutoxy-phenyl)-2-[(4S)-2,2,4-trimethylpyrrolidin-1-yl]pyridine-3-carboxamide] stands “+++ (“+++” means <3 uM)”.
The result for `C[C@@H]1CN(c2nc(C3CC(C)(C)CCC3=O)ccc2C(=O)NS(=O)(=O)c2cccnc2N)C(C)(C)C1` (stereo partly drawn) [Compound 1793, N-[(2-amino-3-pyridyl)sulfonyl]-6-(5,5-dimethyl-2-oxo-cyclohexyl)-2-[(4S)-2,2,4-trimethylpyrrolidin-1-yl]pyridine-3-carboxamide] reads “+++ (“+++” means <3 uM)”; that for `COc1ccc(CN(C)c2cccc(S(=O)(=O)NC(=O)c3cccnc3N3CC(C)CC3(C)C)n2)cc1` (stereo not drawn) [Compound 1717, N—[[6-[(4-methoxyphenyl)methyl-methyl-amino]-2-pyridyl]sulfonyl]-2-(2,2,4-trimethylpyrrolidin-1-yl)pyridine-3-carboxamide], “+++ (“+++” means <3 uM)”; that for `CC(C)COc1cc(F)cc(-c2ccc(C(=O)NS(=O)(=O)c3cccc(N)n3)c(C3CC(C)(C)CC3(C)C)n2)c1` (stereo not drawn) [Compound 1552], “+++ (“+++” means <3 uM)”.
With `Cc1cc(C)c(CN2CCc3ccccc3CC2C(=O)NS(=O)(=O)c2ccccn2)c(C)c1` (stereo not drawn) [Compound 1093, N-(2-pyridylsulfonyl)-3-[(2,4,6-trimethylphenyl)methyl]-1,2,4,5-tetrahydro-3-benzazepine-4-carboxamide], the EC30 entry was “++ (“++” means between 3 uM and 10 uM)”.
The result for `Cc1ccc(OCC(C)C)nc1-c1ccc(C(=O)NS(=O)(=O)c2cccc(N)n2)c(N2CC(C)CC2(C)C)n1` (stereo not drawn) [Compound 1659, N-[(6-amino-2-pyridyl)sulfonyl]-6-(6-isobutoxy-3-methyl-2-pyridyl)-2-(2,2,4-trimethylpyrrolidin-1-yl)pyridine-3-carboxamide] reads “+++ (“+++” means <3 uM)”; that for `COc1cccc(-c2cnc(N3CC(C)CC3(C)C)c(C(=O)NS(=O)(=O)c3cccc(N)n3)c2)n1` (stereo not drawn) [Compound 1861, N-[(6-amino-2-pyridyl)sulfonyl]-5-(6-methoxy-2-pyridyl)-2-(2,2,4-trimethylpyrrolidin-1-yl)pyridine-3-carboxamide], “+++ (“+++” means <3 uM)”.

Source of the values: patent US10758534B2 (Vertex Pharmaceuticals Incorporated, priority 2014, dated 2020).
